The target of assay [1] is LmNADK1 (NADK from Lysteria monocytogenes) (Listeria monocytogenes serovar 1/2a (strain ATCC BAA-679 / EGD-e), UniProt Q8Y8D7). Kind of assay: NAD kinase activity assay (coupled Glucose-6-phosphate dehydrogenase, absorbance at 340 nm). Format: biochemical. As to conditions: for Ki: Dixon plots, 4 mM ATP, NAD 0.2, 0.5 and 1 mM, read-out: Ki, NADK from Lm; for Inhibition of LmNADK1 (in words): purified enzyme. How it is done: (§1) Expression, purification and activity assay. His-tagged LmNADK1 wild-type and His-tagged SaNADK were expressed and purified on cobalt-based IMAC resins (Clontech) as previously published^13. The NAD kinase activity was determined by measuring the absorbance at 340 nm to follow the formation of reduced NADP produced by a coupling enzyme (Glucose-6-phosphate dehydrogenase from yeast). Coupling enzyme and its substrate were purchased from Sigma-Aldrich. The assay was performed in a 0.5 mL sample of (50 mM Tris-HCl pH 7.4, 10 mM MgCl2, 1 mM Glucose-6-phosphate, 2 mM sodium citrate) containing Glucose-6-phosphate dehydrogenase and NADK at 30° C. using a spectrophotometer Eppendorf ECOM 6122.
(§2) For inhibitor assays, IC50 was determined, in the presence of 1 mM NAD and 4 mM ATP (for LmNADK1) or 2 mM ATP (for SaNADK). Dixon plots were used to determine KI in the presence of 4 mM ATP (for LmNADK11) or 2 mM ATP (for Sa NADK) and three NAD concentrations (0.2, 0.5 and 1 mM). It was also checked that the inhibitors had no effect on the coupling enzyme activity.

Assay [2] has as its target SaNADK (NADK from Staphylococcus aureus) (Staphylococcus aureus (strain COL), UniProt Q5HH78). The description is as above. Format: biochemical. The note with it: Dixon plots; 2 mM ATP; NAD 0.2, 0.5 and 1 mM; read-out: Ki, NADK from Sa. As for the experimental part:
as §1, §2

Assay [3] deals with Staphylococcus aureus S25 strain. The assay is described as follows: Bactericidal activity assay. Format: cell-based. The note with it: S. aureus, overnight at 37° C., inhibitor 1 to 100 μg/mL, CFU count. How it is done: 100 μL suspensions of S. aureus corresponding to 2.10^3 bacteria were incubated overnight at 37° C. with increasing concentrations of inhibitor (1 to 100 μg/mL). Bacterial killing (percent) was determined as the ratio of colony forming units after incubation with inhibitor to that of colony forming units after incubation with buffer alone. Data are mean values ±SD from three separate experiments. * indicates a statistical significance in Student's t-test of p<0.05.
The Staphylococcus aureus S25 strain, a human clinical isolate, was grown overnight in brain heart infusion (BHI) broth at 200 rpm and 37° C. Overnight cultures were diluted to OD600nm=0.05 in BHI-phosphate buffer saline (25% v/v). Bacteria were grown at 200 rpm and 37° C. until cultures reached OD600nm=0.5. Bacterial suspensions were adjusted to a concentration of 2.10^5 bacteriamL. In a microtiter plate, 2.10^3 bacteria were incubated overnight at 200 rpm and 37° C. with increasing concentrations of NADK inhibitor in 0.1 mL BHI-phosphate buffer saline (25% v/v) per well. To quantify the bactericidal activity, each bacterial suspension was serially diluted in BHI and plated on BHI agar plates in duplicates. Plates were incubated at 37° C. for 24 h to 48 h and the number of colony forming units was determined.

The test system is the same in assay [4]. The note with it: reference value for comparison; cited from earlier work.
Assay [5] deals with NADK from Listeria monocytogenes (Listeria monocytogenes serovar 1/2a (strain ATCC BAA-679 / EGD-e), UniProt Q8Y8D7). As to conditions: literature value; read-out: K (affinity), inhibition of NADK; cited from earlier work.

Take “8-[3-(Adenosin-5′-yl)methoxyprop-1-yn-1-yl]adenosine [Inhibitor 22]”: in assay [1], the Ki came to 20 µM and the “Inhibition of LmNADK1 (in words)” value is “micromolar range”. The Ki in assay [2] is 15 µM. In addition, the “Concentration giving significant bactericidal activity” value in assay [3] is 1 µg/mL.

Take `CN[C@H](CC(C)C)C(=O)N[C@H]1C(=O)N[C@@H](CC(N)=O)C(=O)N[C@H]2C(=O)N[C@H]3C(=O)N[C@H](C(=O)N[C@H](C(=O)O)c4cc(O)cc(O)c4-c4cc3ccc4O)[C@H](O)c3ccc(c(Cl)c3)Oc3cc2cc(c3O[C@@H]2O[C@H](CO)[C@@H](O)[C@H](O)[C@H]2O[C@H]2C[C@](C)(N)[C@H](O)[C@H](C)O2)Oc2ccc(cc2Cl)[C@H]1O` [vancomycin]: the “Efficiency of reference compound (bactericidal concentration)” value in assay [4] is 8 µg/mL.

For the compound Di-5′-thioadenosine [DTA], the Ki in assay [5] is ~20 µM.

As for “5′-Amino-5′-deoxyadenosin-8-yl-thio-N-[(5′-amino-5′-deoxy-adenosine)methyl]acetamide [Inhibitor 17]”, in assay [1], the Ki turned out to be 30 µM and the “Inhibition of LmNADK1 (in words)” value was “micromolar range”. For the same compound, the Ki in assay [2] is 50 µM. In addition, in assay [3], the “Concentration giving significant bactericidal activity” value is 1 µg/mL.

In the case of `Nc1ncnc2c1ncn2[C@@H]1O[C@H](CNCC#Cc2nc3c(N)ncnc3n2[C@@H]2O[C@H](CO)[C@@H](O)[C@H]2O)[C@@H](O)[C@H]1O` [Inhibitor 19, 8-[3-N-(5′-Deoxyadenosin-5′-yl)aminoprop-1-yn-1-yl]adenosine], in assay [1], the Ki was found to be 10 µM and the “Inhibition of LmNADK1 (in words)” value is “micromolar range”. The Ki in assay [2] came out at 5 µM. Moreover, the “Concentration giving significant bactericidal activity” value in assay [3] was found to be 10 µg/mL.

The values above are taken from patent publication US8927520B2, “Antibacterial compounds” (Institut Pasteur, priority 2010, dated 2015).
